Results reported in patent publication US20260216170A1, “TETRAHYDROISOQUINOLINE HETEROBIFUNCTIONAL BCL-XL DEGRADERS” (Treeline Biosciences, Inc., priority 2023, published 2026).

Molecular target: T1, Human BCL-XL protein (N-terminal HiBiT tagged BCL-XL expressed in HT1080 cells) (Homo sapiens, UniProt Q07817)
T1 construct: expressed in transfected cells; host or cells: HT-1080 (ATCC CCL-121), stably transduced with lentivirus pLV-UBC-N-HiBiT-BCL-XL-PGK-puro and selected with puromycin
Experiment: HiBiT Based Degradation Assay
Format: cell-based
Details: 24 hours incubation; for DC50: BCL-XL degradation, HT1080 cells expressing N-HiBiT-BCL-XL, normalized with DMSO control, geometric mean for multiple data points, read-out: EC50 (24 h); for Ymin (24 h): bottom of BCL-XL degradation curve (remaining HiBiT-BCL-XL signal vs DMSO control), HT1080 cells
Excerpt: HiBiT Based Degradation Assay
Human BCL-XL protein coding open reading frame fused with N-terminal HiBiT coding sequence (N-HiBiT-BCL-XL) was synthesized from Integrated DNA Technologies (IDT). Next, N-HiBiT-BCL-XL sequence was cloned into pLV-UBC-PGK-Puro, a lentivirus plasmid purchased from Vectorbuilder, to generate pLV-UBC-N-HiBiT-BCL-XL-PGK-puro. Lentiviral particles were generated from Lenti-X™ 293T cells (Clontech) by co-transfection of pLV-UBC-N-HiBiT-BCL-XL-PGK-puro plasmids and lentiviral packaging plasmid mix (Cellecta). HT-1080 [HT1080](ATCC CCL-121™) cells were infected with the lentivirus, and HT1080 cells stably integrated with the lentiviral vector were established by incubation with 1 μg/mL puromycin (Thermofisher). HT1080 cells expressing N-terminal HiBiT tagged BCL-XL were dispensed into 384-well plates pre-spotted with compounds at varying concentrations. Three thousand cells were seeded into each well in 40 μL of RPMI 1640 media. After 24 hours of incubation at 37° C. with 5% CO2, 30 μL of the NANO-GLO® HiBiT Lytic Detection System working solution (Promega) was added to each well and incubated at room temperature for 30 min. After incubation, luminescence was read on a PHERAstar FSX Plate Reader (BMG). BCL-XL degradation at each indicated concentration was normalized with DMSO control. The BCL-XL degradation curves were plotted using a four-parameter logistic model. For compounds displaying hook effects, curve fitting was performed using bottom point of hook curves (i.e., the point of Ymin) as bottom plateau to calculate EC50. For compounds with multiple data points, the geometric mean is presented.

T1 sequence (Q07817 whole entry): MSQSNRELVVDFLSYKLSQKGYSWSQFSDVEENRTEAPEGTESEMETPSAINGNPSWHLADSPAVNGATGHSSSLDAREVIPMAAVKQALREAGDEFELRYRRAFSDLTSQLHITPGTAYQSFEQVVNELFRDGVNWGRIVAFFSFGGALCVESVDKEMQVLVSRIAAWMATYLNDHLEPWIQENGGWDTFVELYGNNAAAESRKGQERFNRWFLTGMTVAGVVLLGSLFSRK

Compound | DC50 [nM] | Ymin (24 h)
Cc1cc(OCCC[C@H]2CCN(CC(=O)Nc3ccc4c(C5CCC(=O)NC5=O)nn(C)c4c3)[C@@H](C)C2)ccc1-c1ccc(N2CCc3ccnc(C(=O)Nc4nc5ccccc5s4)c3C2)nc1C(=O)O (stereo partly drawn) [Compound 219b, 6-(8-(benzo[d]thiazol-2-ylcarbamoyl)-3,4-dihydro-2,7-naphthyridin-2(1H)-yl)-3-(4-(3-((2S,4S)-1-(2-((3-(2,6-dioxopiperidin-3-yl)-1-methyl-1H-indazol-6-yl)amino)-2-oxoethyl)-2-methylpiperidin-4-yl)propoxy)-2-methylphenyl)picolinic acid] | < 10 | A (Ymin < 30%)
COc1c(NC(=O)CN2CCC(CC[C@H](C)Oc3ccc(-c4ccc(N5CCc6cccc(C(=O)Nc7nc8ccccc8s7)c6C5)nc4C(=O)O)c(C)c3)CC2)ccc2c(C3CCC(=O)NC3=O)nn(C)c12 (single isomer, unassigned) [Compound 223a] | 10 to 100 | B (30% ≤ Ymin < 50%)
Cc1cc(OCCCC2CCN(CCNc3ccc4c(C5CCC(=O)NC5=O)nn(C)c4c3)CC2)ccc1-c1ccc(N2CCc3cccc(C(=O)Nc4nc5ccccc5s4)c3C2)nc1C(=O)O (centres unmarked) [Compound 179, 6-(8-(benzo[d]thiazol-2-ylcarbamoyl)-3,4-dihydroisoquinolin-2(1H)-yl)-3-(4-(3-(1-(2-((3-(2,6-dioxopiperidin-3-yl)-1-methyl-1H-indazol-6-yl)amino)ethyl)piperidin-4-yl)propoxy)-2-methylphenyl)picolinic acid] | < 10 | A (Ymin < 30%)
Cn1nc(C2CCC(=O)NC2=O)c2ccc(NC(=O)CN3CCC4(CC3)CC(Oc3cccc(-c5ccc(N6CCc7cccc(C(=O)Nc8nc9ccccc9s8)c7C6)nc5C(=O)O)c3C(F)(F)F)C4)cc21 (centres unmarked) [Compound 169, 6-(8-(benzo[d]thiazol-2-ylcarbamoyl)-3,4-dihydroisoquinolin-2(1H)-yl)-3-(3-((7-(2-((3-(2,6-dioxopiperidin-3-yl)-1-methyl-1H-indazol-6-yl)amino)-2-oxoethyl)-7-azaspiro[3.5]nonan-2-yl)oxy)-2-(trifluoromethyl)phenyl)picolinic acid] | < 10 | B (30% ≤ Ymin < 50%)
COc1c(NC(=O)CN2CC[C@H](CCCOc3ccc(-c4ccc(N5CCc6cccc(C(=O)Nc7nc8ccccc8s7)c6C5)nc4C(=O)O)c(C)c3)C[C@H]2C)ccc2c(C3CCC(=O)NC3=O)nn(C)c12 (some centres unmarked) [Compound 210c] | < 10 | A (Ymin < 30%)
COc1c(NC(=O)CN2CC[C@@H](CCCOc3cccc(-c4ccc(N5CCc6cccc(C(=O)Nc7nc8ccccc8s7)c6C5)nc4C(=O)O)c3C)C[C@H]2C)ccc2c(C3CCC(=O)NC3=O)nn(C)c12 (some centres unmarked) [Compound 208d] | 10 to 100 | B (30% ≤ Ymin < 50%)
Cc1c(OC2CC3(CCN(CC(=O)Nc4ccc5c(C6CCC(=O)NC6=O)nn(C)c5c4F)CC3)C2)cccc1-c1ccc(N2CCc3cccc(C(=O)Nc4nc5ccccc5s4)c3C2)nc1C(=O)O (centres unmarked) [Compound 190, 6-(8-(benzo[d]thiazol-2-ylcarbamoyl)-3,4-dihydroisoquinolin-2(1H)-yl)-3-(3-((7-(2-((3-(2,6-dioxopiperidin-3-yl)-7-fluoro-1-methyl-1H-indazol-6-yl)amino)-2-oxoethyl)-7-azaspiro[3.5]nonan-2-yl)oxy)-2-methylphenyl)picolinic acid] | < 10 | B (30% ≤ Ymin < 50%)
Cc1c(OC[C@H]2C[C@H]2CC2CCN(CC(=O)Nc3ccc4c(C5CCC(=O)NC5=O)nn(C)c4c3)CC2)cccc1-c1ccc(N2CCc3cccc(C(=O)Nc4nc5ccccc5s4)c3C2)nc1C(=O)O (single isomer, unassigned) [Compound 1004d] | 10 to 100 | B (30% ≤ Ymin < 50%)
Cc1c(OCCC[C@@H]2CCN(CC(=O)Nc3ccc4c(C5CCC(=O)NC5=O)nn(C)c4c3)[C@H](C)C2)cccc1-c1ccc(N2CCc3ccnc(C(=O)Nc4nc5ccccc5s4)c3C2)nc1C(=O)O (stereo partly drawn) [Compound 216d, 6-(8-(benzo[d]thiazol-2-ylcarbamoyl)-3,4-dihydro-2,7-naphthyridin-2(1H)-yl)-3-(3-(3-((2R,4R)-1-(2-((3-(2,6-dioxopiperidin-3-yl)-1-methyl-1H-indazol-6-yl)amino)-2-oxoethyl)-2-methylpiperidin-4-yl)propoxy)-2-methylphenyl)picolinic acid] | 10 to 100 | B (30% ≤ Ymin < 50%)
Cc1cc(OCCCCC2CCN(CC(=O)Nc3ccc4c(C5CCC(=O)NC5=O)nn(C)c4c3)CC2)ccc1-c1ccc(N2CCc3cccc(C(=O)Nc4nc5ccccc5s4)c3C2)nc1C(=O)O (centres unmarked) [Compound 116, 6-[8-(1,3-benzothiazol-2-ylcarbamoyl)-3,4-dihydro-1H-isoquinolin-2-yl]-3-[4-[4-[1-[2-[[3-(2,6-dioxo-3-piperidyl)-1-methyl-indazol-6-yl]amino]-2-oxo-ethyl]-4-piperidyl]butoxy]-2-methyl-phenyl]pyridine-2-carboxylic acid] | < 10 | B (30% ≤ Ymin < 50%)
C[C@@H]1C[C@@H](CCCOc2cccc(-c3ccc(N4CCc5cccc(C(=O)Nc6nc7ccccc7s6)c5C4)nc3C(=O)O)c2C(F)(F)F)CCN1CC(=O)Nc1ccc2c(C3CCC(=O)NC3=O)nn(C)c2c1 (some centres unmarked) [Compound 215c] | 10 to 100 | B (30% ≤ Ymin < 50%)
Cc1c(OC2CCC3(CC2)CCN(CC(=O)Nc2ccc4c(C5CCC(=O)NC5=O)nn(C)c4c2)CC3)cccc1-c1ccc(N2CCc3cccc(C(=O)Nc4nc5ccccc5s4)c3C2)nc1C(=O)O (centres unmarked) [Compound 119] | < 10 | B (30% ≤ Ymin < 50%)
Cc1cc(OCCCC2(O)CCN(CC(=O)Nc3ccc4c(C5CCC(=O)NC5=O)nn(C)c4c3)CC2)ccc1-c1ccc(N2CCc3cccc(C(=O)Nc4nc5ccccc5s4)c3C2)nc1C(=O)O (centres unmarked) [Compound 107, 6-(8-(benzo[d]thiazol-2-ylcarbamoyl)-3,4-dihydroisoquinolin-2(1H)-yl)-3-(4-(3-(1-(2-((3-(2,6-dioxopiperidin-3-yl)-1-methyl-1H-indazol-6-yl)amino)-2-oxoethyl)-4-hydroxypiperidin-4-yl)propoxy)-2-methylphenyl)picolinic acid] | < 10 | A (Ymin < 30%)
Cn1nc(C2CCC(=O)NC2=O)c2ccc(NC(=O)CN3CCC(CCCOc4cccc(-c5ccc(N6CCc7cccc(C(=O)Nc8nc9ccccc9s8)c7C6)nc5C(=O)O)c4C(F)(F)F)CC3)c(F)c21 (centres unmarked) [Compound 182] | 10 to 100 | B (30% ≤ Ymin < 50%)
Cc1cc(OCC2CC3(CCN(CC(=O)Nc4cc5c(cc4F)c(C4CCC(=O)NC4=O)nn5C)CC3)C2)ccc1-c1ccc(N2CCc3cccc(C(=O)Nc4nc5ccccc5s4)c3C2)nc1C(=O)O (centres unmarked) [Compound 123] | 10 to 100 | B (30% ≤ Ymin < 50%)
Cc1c(OCC2CC3(CCN(CCOc4ccc5c(C6CCC(=O)NC6=O)nn(C)c5c4)CC3)C2)cccc1-c1ccc(N2CCc3cccc(C(=O)Nc4nc5ccccc5s4)c3C2)nc1C(=O)O (centres unmarked) [Compound 152, 6-(8-(benzo[d]thiazol-2-ylcarbamoyl)-3,4-dihydroisoquinolin-2(1H)-yl)-3-(3-((7-(2-((3-(2,6-dioxopiperidin-3-yl)-1-methyl-1H-indazol-6-yl)oxy)ethyl)-7-azaspiro[3.5]nonan-2-yl)methoxy)-2-methylphenyl)picolinic acid] | < 10 | B (30% ≤ Ymin < 50%)
Cc1c(OC[C@@H]2C[C@H]2C2CCN(CC(=O)Nc3ccc4c(C5CCC(=O)NC5=O)nn(C)c4c3)CC2)cccc1-c1ccc(N2CCc3cccc(C(=O)Nc4nc5ccccc5s4)c3C2)nc1C(=O)O (single isomer, unassigned) [Compound 1001a] | 10 to 100 | B (30% ≤ Ymin < 50%)
C[C@H]1C[C@H](CCCOc2ccc(-c3ccc(N4CCc5cccc(C(=O)Nc6nc7ccccc7s6)c5C4)nc3C(=O)O)c(C(F)(F)F)c2)CCN1CC(=O)Nc1ccc2c(C3CCC(=O)NC3=O)nn(C)c2c1 (some centres unmarked) [Compound 209b] | 10 to 100 | B (30% ≤ Ymin < 50%)
Cc1c(OCCCC2(O)CCN(CC(=O)Nc3ccc4c(C5CCC(=O)NC5=O)nn(C)c4c3)CC2)cccc1-c1ccc(N2CCc3cccc(C(=O)Nc4nc5ccccc5s4)c3C2)nc1C(=O)O (centres unmarked) [Compound 108, 6-(8-(benzo[d]thiazol-2-ylcarbamoyl)-3,4-dihydroisoquinolin-2(1H)-yl)-3-(3-(3-(1-(2-((3-(2,6-dioxopiperidin-3-yl)-1-methyl-1H-indazol-6-yl)amino)-2-oxoethyl)-4-hydroxypiperidin-4-yl)propoxy)-2-methylphenyl)picolinic acid] | 10 to 100 | B (30% ≤ Ymin < 50%)
